In patent publication US20230330254A1 (Regeneron Pharmaceuticals, Inc., priority 2022, published 2023):
Like-named read-outs stand apart in the source and are kept apart here.

Key:
hERG potassium channels = hERG potassium channels (Homo sapiens, UniProt Q12809); experiment: cell-based
Experimental: For the assay, CHO cells stably expressing hERG potassium channels were plated and cultured for at least 2 days in a humidified and air-controlled (5% CO2) incubator at 37° C. prior to use in electrophysiological experiments. Cells were then harvested using TrypLE and resuspended in physiological solution (10 mM HEPES, 80 mM NaCl, 4 mM KCl, 2 mM CaCl2, 1 mM MgCl2, 5 mM Glucose, 60 mM NM DG, pH 7.4). Test compounds were dissolved in water to obtain stock solutions for different test concentrations. […] One 40 μL addition of the vehicle was applied, followed by a 300s baseline recording period. […] Recordings were required to pass quality control over the duration of the recording or the well was abandoned, and the compound was retested, all automatically set by PatchControl. […] A minimum of 2 replicates per concentration were obtained. […] Curve-fitting and IC50 value calculations were performed by GraphPad Prism 5.0.

[1] = target: T1, human glucagon receptor (GCGR) (Homo sapiens, UniProt P47871); experiment: Luciferase reporter assay, HEK293/CRE-Luc/hGCGR (Example 17); assay type: cell-based; details: Table 28; CRE-dependent luciferase reporter activity
T1 construct: full-length human GLP1R, cynomolgus GLP1R, human glucagon receptor (GCGR); expressed in transfected cells; host or cells: HEK293/CRE-Luc
T1 sequence (P47871 26-477): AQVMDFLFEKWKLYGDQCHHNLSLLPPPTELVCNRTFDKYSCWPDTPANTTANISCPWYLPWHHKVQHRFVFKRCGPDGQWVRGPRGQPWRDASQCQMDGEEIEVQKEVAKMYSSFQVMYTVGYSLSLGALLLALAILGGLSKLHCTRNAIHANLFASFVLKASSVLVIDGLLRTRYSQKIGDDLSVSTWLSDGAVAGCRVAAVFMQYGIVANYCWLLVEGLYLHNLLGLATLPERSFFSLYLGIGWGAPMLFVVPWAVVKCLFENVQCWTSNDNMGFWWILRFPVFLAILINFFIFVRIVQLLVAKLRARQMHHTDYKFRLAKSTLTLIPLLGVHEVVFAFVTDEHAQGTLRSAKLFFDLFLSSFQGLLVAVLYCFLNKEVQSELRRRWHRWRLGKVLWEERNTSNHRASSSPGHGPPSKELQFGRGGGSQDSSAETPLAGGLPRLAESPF

Chain of hERG potassium channels (Q12809 whole entry): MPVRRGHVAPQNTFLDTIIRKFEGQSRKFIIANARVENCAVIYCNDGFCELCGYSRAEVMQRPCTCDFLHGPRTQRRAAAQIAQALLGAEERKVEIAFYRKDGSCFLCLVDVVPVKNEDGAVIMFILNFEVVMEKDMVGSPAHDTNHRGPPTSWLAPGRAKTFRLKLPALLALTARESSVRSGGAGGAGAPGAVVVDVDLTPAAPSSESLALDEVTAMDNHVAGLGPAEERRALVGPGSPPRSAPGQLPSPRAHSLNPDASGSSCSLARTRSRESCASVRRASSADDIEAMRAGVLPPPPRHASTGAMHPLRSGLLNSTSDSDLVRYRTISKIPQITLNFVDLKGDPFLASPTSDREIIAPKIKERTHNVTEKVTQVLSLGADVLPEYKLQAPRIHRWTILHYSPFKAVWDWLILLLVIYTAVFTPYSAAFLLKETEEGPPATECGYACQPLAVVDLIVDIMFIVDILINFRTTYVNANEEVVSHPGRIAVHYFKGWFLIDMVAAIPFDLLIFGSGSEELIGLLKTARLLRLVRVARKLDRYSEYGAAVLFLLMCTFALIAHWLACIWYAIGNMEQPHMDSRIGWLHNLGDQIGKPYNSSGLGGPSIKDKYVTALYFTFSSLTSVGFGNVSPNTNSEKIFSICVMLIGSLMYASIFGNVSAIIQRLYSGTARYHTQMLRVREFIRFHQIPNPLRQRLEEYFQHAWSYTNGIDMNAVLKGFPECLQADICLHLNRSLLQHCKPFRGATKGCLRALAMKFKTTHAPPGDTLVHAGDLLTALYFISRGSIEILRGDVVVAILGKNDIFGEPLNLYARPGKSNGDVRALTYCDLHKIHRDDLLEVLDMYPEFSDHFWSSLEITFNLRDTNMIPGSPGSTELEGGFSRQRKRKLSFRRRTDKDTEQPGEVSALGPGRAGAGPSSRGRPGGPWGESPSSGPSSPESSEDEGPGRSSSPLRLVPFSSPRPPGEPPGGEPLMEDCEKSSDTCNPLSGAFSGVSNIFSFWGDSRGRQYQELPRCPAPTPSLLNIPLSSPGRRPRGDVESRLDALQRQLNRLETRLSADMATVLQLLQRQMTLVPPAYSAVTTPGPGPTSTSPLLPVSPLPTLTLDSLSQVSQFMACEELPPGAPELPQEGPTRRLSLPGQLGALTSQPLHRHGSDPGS

| Structure (SMILES) | IC50 (hERG potassium channels) | IC50 (hERG potassium channels; human, pH 7.4) | EC50 [1] |
| --- | --- | --- | --- |
| CCc1cc(OCCCCn2cc(COCCOCCOCCOCCOCCOCCOCCOCCN)nn2)ccc1-c1ccc(C[C@H](NC(=O)[C@H](CC(=O)O)NC(=O)[C@H](CO)NC(=O)[C@@H](NC(=O)C(C)(Cc2ccccc2F)NC(=O)[C@@H](NC(=O)CNC(=O)[C@H](Cc2nn[nH]n2)NC(=O)C(C)(C)C(=O)NCCc2cnc[nH]2)[C@@H](C)O)[C@@H](C)O)C(=O)N[C@@H](CCCc2cc(C)cc(C)c2)C(N)=O)cc1 (stereo partly drawn) [LP11, NH2-PEG8-triazole-P8] | > 100 µM | > 100 µM |  |
| CCc1cc(OCCCCn2cc(COCCOCCOCCOCCOCCOCCOCCOCCN)nn2)ccc1-c1ccc(C[C@H](NC(=O)[C@H](CC(=O)O)NC(=O)[C@H](CO)NC(=O)[C@@H](NC(=O)[C@](C)(Cc2ccccc2F)NC(=O)[C@@H](NC(=O)CNC(=O)[C@H](Cc2nn[nH]n2)NC(=O)C(C)(C)C(=O)NCCc2cnc[nH]2)[C@@H](C)O)[C@@H](C)O)C(=O)N[C@@H](CCCc2cc(C)cc(C)c2)C(N)=O)cc1 [M3190] |  |  | > 200 nM |
